Assay results: PubChem BioAssay AID256 (DTP/NCI, 2004)
Inconclusive results and toxic doses are left out. How the source made its calls: active means survival T/C of 150% or more; inactive means T/C below 125% in these data. Residues, ends and D or L forms follow the SMILES beside them. *: point of attachment. Octanoyl = CCCCCCCC(=O)*

Tested on: CD2F1 mice, L1210 leukemia ip, survival T/C
Assay: NCI In Vivo Anticancer Drug Screen. Data for tumor model L1210 Leukemia (intraperitoneal) in CD2F1 (CDF1) mice
Details: higher = longer survival
Method in brief: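 Ratio T/C, where T is the treated-group value and C the vehicle-dosed control value, from mice implanted with a transplantable tumor.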

[1] = endpoint: mean survival time, dose: 100.0 mg/kg/injection, schedule: Q04DX003 (ip), vehicle: saline
[2] = endpoint: mean survival time, dose: 200.0 mg/kg/injection, schedule: Q04DX003 (ip), vehicle: saline
[3] = endpoint: mean survival time, dose: 400.0 mg/kg/injection, schedule: Q04DX003 (ip), vehicle: saline
[4] = endpoint: mean survival time, dose: 100.0 mg/kg/injection, schedule: Q01DX001 (ip), vehicle: saline with Tween-80
[5] = endpoint: mean survival time, dose: 200.0 mg/kg/injection, schedule: Q01DX001 (ip), vehicle: saline with Tween-80
[6] = endpoint: mean survival time, dose: 400.0 mg/kg/injection, schedule: Q01DX001 (ip), vehicle: saline with Tween-80
[7] = endpoint: mean survival time, dose: 100.0 mg/kg/injection, schedule: Q04DX003 (ip), vehicle: saline with Tween-80
[8] = endpoint: mean survival time, dose: 200.0 mg/kg/injection, schedule: Q04DX003 (ip), vehicle: saline with Tween-80
[9] = endpoint: mean survival time, dose: 400.0 mg/kg/injection, schedule: Q04DX003 (ip), vehicle: saline with Tween-80
[10] = endpoint: mean survival time, dose: 100.0 mg/kg/injection, schedule: Q01DX009 (ip), vehicle: saline with Tween-80
[11] = endpoint: mean survival time, dose: 200.0 mg/kg/injection, schedule: Q01DX009 (ip), vehicle: saline with Tween-80
[12] = endpoint: mean survival time, dose: 400.0 mg/kg/injection, schedule: Q01DX009 (ip), vehicle: saline with Tween-80
[13] = endpoint: mean survival time, dose: 12.5 mg/kg/injection, schedule: Q01DX009 (ip), vehicle: saline with Tween-80
[14] = endpoint: mean survival time, dose: 50.0 mg/kg/injection, schedule: Q01DX009 (ip), vehicle: saline with Tween-80

Measured: T/C

O=C1OC(=O)C2C(c3ccccc3)=C3C(=C(c4ccccc4)C12)c1cccc2cccc3c12 (configuration not stated)
inactive: endpoint: mean survival time, dose: 100.0 mg/kg/injection, schedule: Q04DX002 (ip), vehicle: saline with Tween-80 94 % of control | endpoint: mean survival time, dose: 200.0 mg/kg/injection, schedule: Q04DX002 (ip), vehicle: saline with Tween-80 97 % of control | endpoint: mean survival time, dose: 400.0 mg/kg/injection, schedule: Q04DX002 (ip), vehicle: saline with Tween-80 94 % of control

O=S1(=O)c2ccccc2C(=NO)c2ccccc21
inactive: [1] 92 % of control | [2] 96 % of control | [3] 106 % of control

Nc1nc(=O)n(CCCOc2cccc([N+](=O)[O-])c2)cc1-c1ccccc1
inactive: [4] 96 % of control | [5] 87 % of control | [6] 87 % of control

CC(=O)Nc1nc(Br)c2ccccc2c1-c1ccc(N(CCO)CCO)cc1
inactive: endpoint: mean survival time, dose: 25.0 mg/kg/injection, schedule: Q04DX003 (ip), vehicle: DMSO 90 % of control | endpoint: mean survival time, dose: 50.0 mg/kg/injection, schedule: Q04DX003 (ip), vehicle: DMSO 90 % of control | endpoint: mean survival time, dose: 100.0 mg/kg/injection, schedule: Q04DX003 (ip), vehicle: DMSO 94 % of control | endpoint: mean survival time, dose: 200.0 mg/kg/injection, schedule: Q04DX003 (ip), vehicle: DMSO 87 % of control

Cc1cc(C)c(C)c(C(=O)C(=O)c2ccccc2)c1
inactive: endpoint: mean survival time, dose: 75.0 mg/kg/injection, schedule: Q01DX001 (ip), vehicle: other 93 % of control | endpoint: mean survival time, dose: 150.0 mg/kg/injection, schedule: Q01DX001 (ip), vehicle: other 94 % of control | endpoint: mean survival time, dose: 300.0 mg/kg/injection, schedule: Q01DX001 (ip), vehicle: other 100 % of control

CC(=O)OCC(Br)C(Br)COC(C)=O (configuration not stated)
inactive: [7] 100 % of control | [8] 100 % of control | [9] 97 % of control

O=C(O)C1=CC(O)C(O)C(O)C1 (configuration not stated)
inactive: [1] 102 % of control | [2] 96 % of control | [3] 90 % of control

CCCCCCCCCCSS(=O)(=O)O
inactive: endpoint: mean survival time, dose: 25.0 mg/kg/injection, schedule: Q01DX001 (ip), vehicle: other 105 % of control | endpoint: mean survival time, dose: 50.0 mg/kg/injection, schedule: Q01DX001 (ip), vehicle: other 96 % of control | endpoint: mean survival time, dose: 100.0 mg/kg/injection, schedule: Q01DX001 (ip), vehicle: other 96 % of control

CC(=O)NC1=CC(OC(C)=O)C(COC(C)=O)OC1n1cnc2c1c(=O)n(C)c(=O)n2C (configuration not stated)
inactive: endpoint: mean survival time, dose: 12.5 mg/kg/injection, schedule: Q01DX005 (ip), vehicle: distilled water + Tween-80 93 % of control | endpoint: mean survival time, dose: 25.0 mg/kg/injection, schedule: Q01DX005 (ip), vehicle: distilled water + Tween-80 88 % of control | endpoint: mean survival time, dose: 50.0 mg/kg/injection, schedule: Q01DX005 (ip), vehicle: distilled water + Tween-80 88 % of control | endpoint: mean survival time, dose: 200.0 mg/kg/injection, schedule: Q01DX005 (ip), vehicle: distilled water + Tween-80 88 % of control

CSc1nc(NC2OC(CO)C(O)C(O)C2O)cc(=O)n1C (configuration not stated)
inactive: endpoint: median survival time, dose: 12.5 mg/kg/injection, schedule: Q01DX005 (ip), vehicle: saline 102 % of control | endpoint: median survival time, dose: 25.0 mg/kg/injection, schedule: Q01DX005 (ip), vehicle: saline 100 % of control | endpoint: median survival time, dose: 50.0 mg/kg/injection, schedule: Q01DX005 (ip), vehicle: saline 102 % of control | endpoint: median survival time, dose: 100.0 mg/kg/injection, schedule: Q01DX005 (ip), vehicle: saline 102 % of control | endpoint: median survival time, dose: 200.0 mg/kg/injection, schedule: Q01DX005 (ip), vehicle: saline 100 % of control

C=CCCCCCCCCC(=O)NCc1ccccn1
inactive: [4] 93 % of control | [5] 102 % of control | [6] 91 % of control

N#Cc1cn(C2CCCCC2)c2[nH]c(=O)cc(O)c12
inactive: [1] 97 % of control | [2] 101 % of control | [3] 121 % of control

Cc1ccc2nc(C(F)(F)F)cc(NN)c2c1
inactive: [10] 100 % of control | [7] 101 % of control | [11] 94 % of control | [8] 96 % of control | [12] 100 % of control | [9] 98 % of control

CCOC(=O)c1c(NC(C)=O)sc2c1CCCC2
inactive: [7] 97 % of control | [8] 106 % of control

O=C(CCl)Nc1nccs1
inactive: [13] 100 % of control | endpoint: mean survival time, dose: 25.0 mg/kg/injection, schedule: Q01DX009 (ip), vehicle: saline with Tween-80 95 % of control | [14] 97 % of control | [10] 92 % of control

CC(=O)NCC1CCN(C(C)=O)CC1
inactive: [1] 94 % of control | [2] 96 % of control | [3] 96 % of control

N#C/C(=C\c1ccco1)c1ccc([N+](=O)[O-])cc1
inactive: endpoint: mean survival time, dose: 6.25 mg/kg/injection, schedule: Q04DX003 (ip), vehicle: saline with Tween-80 102 % of control | endpoint: mean survival time, dose: 12.5 mg/kg/injection, schedule: Q04DX003 (ip), vehicle: saline with Tween-80 102 % of control | endpoint: mean survival time, dose: 25.0 mg/kg/injection, schedule: Q04DX003 (ip), vehicle: saline with Tween-80 100 % of control | endpoint: mean survival time, dose: 100.0 mg/kg/injection, schedule: Q01DX001 (ip), vehicle: Klucel (hydroxypropylcellulose) (HPC) 106 % of control | endpoint: mean survival time, dose: 200.0 mg/kg/injection, schedule: Q01DX001 (ip), vehicle: Klucel (hydroxypropylcellulose) (HPC) 95 % of control | endpoint: mean survival time, dose: 400.0 mg/kg/injection, schedule: Q01DX001 (ip), vehicle: Klucel (hydroxypropylcellulose) (HPC) 94 % of control

Cc1csc2ncnc(N)c12
inactive: [4] 100 % of control | [5] 92 % of control | [6] 101 % of control

CCCCCCCC(=O)NCC(=O)NCC(=O)O (Octanoyl-Gly-Gly-OH)
inactive: endpoint: mean survival time, dose: 6.25 mg/kg/injection, schedule: Q01DX001 (ip), vehicle: Klucel (hydroxypropylcellulose) (HPC) 97 % of control | endpoint: mean survival time, dose: 12.5 mg/kg/injection, schedule: Q01DX001 (ip), vehicle: Klucel (hydroxypropylcellulose) (HPC) 95 % of control | endpoint: mean survival time, dose: 25.0 mg/kg/injection, schedule: Q01DX001 (ip), vehicle: Klucel (hydroxypropylcellulose) (HPC) 100 % of control | endpoint: mean survival time, dose: 50.0 mg/kg/injection, schedule: Q01DX001 (ip), vehicle: Klucel (hydroxypropylcellulose) (HPC) 93 % of control

N#C/C(=C\c1cccc2ccccc12)c1ccccc1
inactive: [10] 100 % of control | [7] 93 % of control | [11] 96 % of control | [8] 98 % of control | [12] 97 % of control | [9] 102 % of control

[O-][n+]1c2c(cc3ccccc31)Cc1ccccc1-2
inactive: endpoint: mean survival time, dose: 100.0 mg/kg/injection, schedule: Q04DX003 (ip), vehicle: Klucel (hydroxypropylcellulose) (HPC) 98 % of control | endpoint: mean survival time, dose: 200.0 mg/kg/injection, schedule: Q04DX003 (ip), vehicle: Klucel (hydroxypropylcellulose) (HPC) 96 % of control | endpoint: mean survival time, dose: 400.0 mg/kg/injection, schedule: Q04DX003 (ip), vehicle: Klucel (hydroxypropylcellulose) (HPC) 93 % of control

Nc1ccccc1CO
inactive: [7] 100 % of control | [8] 95 % of control | [9] 95 % of control

CC(C)C(=O)C1CCCCC1
inactive: [14] 103 % of control | [10] 95 % of control | [11] 95 % of control

COC(=O)C(N)Cc1ccc(OC(c2ccccc2)(c2ccccc2)c2ccccc2)cc1 (configuration not stated)
inactive: endpoint: mean survival time, dose: 50.0 mg/kg/injection, schedule: Q01DX009 (ip), vehicle: saline 100 % of control | endpoint: mean survival time, dose: 100.0 mg/kg/injection, schedule: Q01DX009 (ip), vehicle: saline 92 % of control | endpoint: mean survival time, dose: 200.0 mg/kg/injection, schedule: Q01DX009 (ip), vehicle: saline 94 % of control | endpoint: mean survival time, dose: 400.0 mg/kg/injection, schedule: Q01DX009 (ip), vehicle: saline 94 % of control

O=C(N/N=C\c1ccc(Cl)cc1)C(=O)N/N=C\c1ccc(Cl)cc1
inactive: [4] 106 % of control | [5] 92 % of control | [6] 89 % of control

C=C(C)C12CC(COC(=O)c3ccccc3)C34OC5(OC1C3C1OC1(CO)C(O)C1(O)C(OC(=O)c3ccccc3)C(C)C(C(C)CCCCCCC5O)C14)O2 (configuration not stated)
inactive: endpoint: mean survival time, dose: 1.5 micrograms/kg/injection, schedule: Q01DX009 (ip), vehicle: saline 103 % of control | endpoint: mean survival time, dose: 3.1 micrograms/kg/injection, schedule: Q01DX009 (ip), vehicle: saline 98 % of control | endpoint: mean survival time, dose: 6.2 micrograms/kg/injection, schedule: Q01DX009 (ip), vehicle: saline 97 % of control | endpoint: mean survival time, dose: 12.5 micrograms/kg/injection, schedule: Q01DX009 (ip), vehicle: saline 98 % of control

CN(C)c1ccc(C2OC3(CCCCC3)C[N+]23CCCC3)cc1 (configuration not stated)
inactive: endpoint: mean survival time, dose: 3.12 mg/kg/injection, schedule: Q01DX009 (ip), vehicle: saline with Tween-80 101 % of control | endpoint: mean survival time, dose: 6.25 mg/kg/injection, schedule: Q01DX009 (ip), vehicle: saline with Tween-80 97 % of control | [13] 97 % of control
